This note sets out measurements from patent publication US20140163026A1, “8-ETHYL-6-(ARYL)PYRIDO[2,3-D]PYRIMIDIN-7(8H)-ONES FOR THE TREATMENT OF NERVOUS SYSTEM DISORDERS AND CANCER” (Afraxis Holdings, Inc., priority 2011, published 2014).

The IC50 is the point on the concentration scale where inhibition reaches its midpoint. Lower therefore signals inhibition by little substance.

Holding throughout (format): biochemical
One assay deals with PAK2 (PAK65) (Homo sapiens, UniProt Q13177). Put plainly: In vitro PAK inhibition assay (SelectScreen, Ser/Thr 20 peptide). On the procedure:
(§1) Compounds are screened in 1% DMSO (final) in the well. For 10 point titrations, 3-fold serial dilutions are conducted.
(§2) All Peptide/Kinase Mixtures are diluted to a 2× working concentration in the appropriate Kinase Buffer
The 2×PAK2 (PAK65)/Ser/Thr 20 mixture is prepared in 50 mM HEPES pH 7.5, 0.01% BRIJ-35, 10 mM MgCl2, 1 mM EGTA. The final 10 μL Kinase Reaction consists of 0.29-6 ng PAK2 (PAK65) and 2 μM Ser/Thr 20 in 50 mM HEPES pH 7.5, 0.01% BRIJ-35, 10 mM MgCl2, 1 mM EGTA.
(§3) This control yields 100% cleaved peptide in the Development Reaction.
(§4) The 100% Phosphorylation Control, which consists of a synthetically phosphorylated peptide of the same sequence as the peptide substrate, is designed to allow for the calculation of percent phosphorylation.
(§5) This control is designed to produce a 10-50%* phosphorylated peptide in the Kinase Reaction.
(§6) A known inhibitor control standard curve, 10 point titration, is run for each individual kinase on the same plate as the kinase to ensure the kinase is inhibited within an expected IC50 range previously determined.
(§7) Add the following solutions to a well in a 384-well plate: • 2.5 μL of 4× Test Compound OR (100 nL 100× Test Compound plus 2.4 μL kinase buffer) • 5 μL of 2× Peptide/Kinase (PAK) Mixture • 2.5 μL of 4×ATP Solution • 2. Shake the plate for 30-seconds • 3. Incubate the PAK Kinase Reaction at room temperature for 60-minutes • 4. Add 5 μL of Development Reagent Solution to each well • 5. Shake the plate for 30-seconds • 6. Incubate the Development Reaction for 60-minutes • 7. Determine the fluorescence using a fluorescence plate reader • 8. Analyze the fluorescence data
(§8) SelectScreen® Kinase Profiling Service uses XLfit from IDBS.
(§9) The representative IC50 value with a known inhibitor for each kinase was determined at the ATP bin nearest to the ATP Km app.

Another assay concerns the target PAK4 (Homo sapiens, UniProt O96013). The assay is described as above. On the procedure:
as §1, §2
The 2×PAK4/Ser/Thr 20 mixture is prepared in 50 mM HEPES pH 7.5, 0.01% BRIJ-35, 10 mM MgCl2, 1 mM EGTA. The final 10 μL Kinase Reaction consists of 0.1-0.75 ng PAK4 and 2 μM Ser/Thr 20 in 50 mM HEPES pH 7.5, 0.01% BRIJ-35, 10 mM MgCl2, 1 mM EGTA. After the 1 hour Kinase Reaction incubation, 5 μL of a 1:256 dilution of Development Reagent A is added.
as §3, §4
The minimum Emission Ratio in a screen is established by the 0% Inhibition Control, which contains active kinase. This control is designed to produce a 10-50%* phosphorylated peptide in the Kinase Reaction.
as §6
as §7, with “Bar-coded Corning, low volume NBS, black 384-well plate (Corning Cat. #3676) • 1. Add the” for “Add the”
SelectScreen® Kinase Profiling Service uses XLfit from IDBS. The dose response curve is curve fit to model number 205 (sigmoidal dose-response model).
The table below provides specifications and data around each kinase. The representative IC50 value with a known inhibitor for each kinase was determined at the ATP bin nearest to the ATP Km app.

A further assay concerns the target PAK3 (Homo sapiens, UniProt O75914). The description is as above. Here is the method: as §1, §2
The 2×PAK3/Ser/Thr 20 mixture is prepared in 50 mM HEPES pH 7.5, 0.01% BRIJ-35, 10 mM MgCl2, 1 mM EGTA.
as §3, §4, §5, §6, §7, §8, §9

In the next assay the target is PAK1 (Homo sapiens, UniProt Q13153). In words: In vitro PAK inhibition assay (SelectScreen, Ser/Thr 19 peptide). On the procedure: as §1, §2
The 2×PAK1/Ser/Thr 19 mixture is prepared in 50 mM HEPES pH 7.5, 0.01% BRIJ-35, 10 mM MgCl2, 1 mM EGTA.
as §3, §4, §5, §6, §7, §8, §9

PAK1, sequence (Q13153 whole entry): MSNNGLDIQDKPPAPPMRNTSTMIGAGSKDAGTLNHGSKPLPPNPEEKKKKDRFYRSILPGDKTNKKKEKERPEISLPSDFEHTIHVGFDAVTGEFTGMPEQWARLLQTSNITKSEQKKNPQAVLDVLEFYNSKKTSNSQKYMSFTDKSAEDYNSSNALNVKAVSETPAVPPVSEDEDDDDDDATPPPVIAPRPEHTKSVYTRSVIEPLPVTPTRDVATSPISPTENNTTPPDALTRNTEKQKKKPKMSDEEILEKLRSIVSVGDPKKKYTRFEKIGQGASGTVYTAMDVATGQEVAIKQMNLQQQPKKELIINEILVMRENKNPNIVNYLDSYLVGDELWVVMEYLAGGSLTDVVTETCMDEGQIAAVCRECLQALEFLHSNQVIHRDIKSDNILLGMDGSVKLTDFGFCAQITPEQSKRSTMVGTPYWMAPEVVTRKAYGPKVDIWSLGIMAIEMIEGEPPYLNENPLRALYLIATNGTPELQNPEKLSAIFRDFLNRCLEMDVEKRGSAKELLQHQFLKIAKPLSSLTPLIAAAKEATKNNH
PAK4, sequence (O96013 whole entry): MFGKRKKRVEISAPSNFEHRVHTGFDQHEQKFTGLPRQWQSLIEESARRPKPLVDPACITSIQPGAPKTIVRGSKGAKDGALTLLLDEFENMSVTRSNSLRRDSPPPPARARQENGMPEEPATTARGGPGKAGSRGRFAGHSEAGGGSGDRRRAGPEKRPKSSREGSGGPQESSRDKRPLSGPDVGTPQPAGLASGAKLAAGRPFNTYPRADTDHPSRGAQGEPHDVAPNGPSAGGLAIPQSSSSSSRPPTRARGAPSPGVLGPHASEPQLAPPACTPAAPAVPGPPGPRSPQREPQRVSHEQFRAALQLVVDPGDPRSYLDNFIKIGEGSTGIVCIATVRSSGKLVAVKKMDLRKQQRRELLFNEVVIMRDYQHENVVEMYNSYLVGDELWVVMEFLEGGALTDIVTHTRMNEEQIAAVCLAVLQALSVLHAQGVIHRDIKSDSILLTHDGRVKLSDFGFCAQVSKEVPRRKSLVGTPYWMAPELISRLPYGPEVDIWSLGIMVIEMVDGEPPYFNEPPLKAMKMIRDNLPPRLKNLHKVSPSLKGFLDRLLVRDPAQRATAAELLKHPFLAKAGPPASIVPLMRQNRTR
PAK3, sequence (O75914 whole entry): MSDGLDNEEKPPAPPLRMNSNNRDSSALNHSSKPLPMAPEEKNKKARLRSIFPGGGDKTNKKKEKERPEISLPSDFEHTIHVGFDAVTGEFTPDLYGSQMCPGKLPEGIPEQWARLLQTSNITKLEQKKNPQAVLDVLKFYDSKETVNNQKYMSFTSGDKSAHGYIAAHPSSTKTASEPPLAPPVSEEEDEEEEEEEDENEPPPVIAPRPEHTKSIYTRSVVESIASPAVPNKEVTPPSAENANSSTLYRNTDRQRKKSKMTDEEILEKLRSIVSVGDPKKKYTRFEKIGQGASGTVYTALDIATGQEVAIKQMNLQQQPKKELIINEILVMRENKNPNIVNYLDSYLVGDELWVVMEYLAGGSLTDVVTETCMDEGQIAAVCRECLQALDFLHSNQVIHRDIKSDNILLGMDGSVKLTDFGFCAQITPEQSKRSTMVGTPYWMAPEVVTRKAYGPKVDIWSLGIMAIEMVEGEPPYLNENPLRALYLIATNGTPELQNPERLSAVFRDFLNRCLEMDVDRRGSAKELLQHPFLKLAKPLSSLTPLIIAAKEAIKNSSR
PAK2 (PAK65), sequence (Q13177 whole entry): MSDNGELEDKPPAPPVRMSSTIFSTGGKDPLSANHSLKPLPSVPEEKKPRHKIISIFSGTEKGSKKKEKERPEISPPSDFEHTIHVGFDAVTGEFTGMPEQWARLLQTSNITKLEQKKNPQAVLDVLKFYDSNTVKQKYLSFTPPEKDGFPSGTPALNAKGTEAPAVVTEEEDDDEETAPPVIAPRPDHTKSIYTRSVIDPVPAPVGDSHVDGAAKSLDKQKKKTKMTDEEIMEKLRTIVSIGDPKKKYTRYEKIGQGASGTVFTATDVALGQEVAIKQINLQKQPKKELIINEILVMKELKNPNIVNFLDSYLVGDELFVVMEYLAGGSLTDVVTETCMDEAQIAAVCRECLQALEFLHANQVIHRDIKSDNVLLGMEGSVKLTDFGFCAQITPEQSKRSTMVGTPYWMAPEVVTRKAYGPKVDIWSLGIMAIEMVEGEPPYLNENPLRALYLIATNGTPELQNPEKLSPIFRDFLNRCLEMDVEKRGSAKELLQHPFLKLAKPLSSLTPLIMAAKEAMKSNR

Consider `CCn1c(=O)c(-c2ccc(-c3cccs3)cc2Cl)cc2cnc(Nc3ccc(N4CCN(C)CC4)cc3)nc21`, for which the IC50 is less than 50 nM at PAK2 (PAK65), no less than 5000 nM against PAK4, 50 to 500 nM against PAK3 and less than 50 nM against PAK1.
For `CCn1c(=O)c(-c2ccc(C3CC3)cc2Cl)cc2cnc(Nc3ccc(N4CCN(C)CC4)cc3)nc21`, the IC50 was 50 to 500 nM at PAK2 (PAK65), no less than 5000 nM against PAK4, 50 to 500 nM against PAK3 and 50 to 500 nM at PAK1.
In the case of `CCn1c(=O)c(-c2ccc(C3CC3)cc2C2CC2)cc2cnc(Nc3ccc(N4CCN(C)CC4)cc3)nc21`, the IC50 on PAK2 (PAK65) was 500 to 5000 nM; on PAK4, no less than 5000 nM; against PAK3, 500 to 5000 nM; at PAK1, 500 to 5000 nM.
Regarding `CCn1c(=O)c(-c2ccc(-c3nccs3)cc2Cl)cc2cnc(Nc3ccc(N4CCN(C)CC4)cc3)nc21`, the IC50 was less than 50 nM at PAK2 (PAK65), 500 to 5000 nM at PAK4, less than 50 nM at PAK3 and less than 50 nM on PAK1.
On to `CCn1c(=O)c(-c2ccc(-c3ccncc3)s2)cc2cnc(Nc3ccc(N4CCN(C)CC4)cc3)nc21`, for which the IC50 is greater than 5000 nM against PAK2 (PAK65), no less than 5000 nM against PAK4, greater than 5000 nM against PAK3 and greater than 5000 nM on PAK1.
Turning to `CCn1c(=O)c(-c2ccc(-c3ccon3)s2)cc2cnc(Nc3ccc(N4CCN(C)CC4)cc3)nc21`, the IC50 was greater than 5000 nM at PAK2 (PAK65), no less than 5000 nM against PAK4, greater than 5000 nM against PAK3 and greater than 5000 nM at PAK1.
Turning to `CCn1c(=O)c(-c2ccc(-c3cn[nH]c3)cc2Cl)cc2cnc(Nc3ccc(N4CCN(C)CC4)cc3)nc21`, the IC50 was 50 to 500 nM against PAK2 (PAK65), no less than 5000 nM at PAK4, 50 to 500 nM against PAK3 and 50 to 500 nM against PAK1.
Consider `CCn1c(=O)c(-c2ccc(-c3cccnc3)cc2Cl)cc2cnc(Nc3ccc(N4CCNCC4)c(F)c3)nc21`, for which the IC50 is less than 50 nM on PAK2 (PAK65), 500 to 5000 nM against PAK4, less than 50 nM on PAK3 and less than 50 nM against PAK1.
Take `CCOC(=O)c1nc(-c2ccc(-c3cc4cnc(Nc5ccc(N6CCN(C)CC6)cc5)nc4n(CC)c3=O)c(Cl)c2)no1`: the IC50 against PAK2 (PAK65) was 50 to 500 nM; at PAK4 it was no less than 5000 nM; on PAK3, 50 to 500 nM; at PAK1 it was less than 50 nM.
Take `CCn1c(=O)c(-c2ccc(-c3cncnc3)cc2Cl)cc2cnc(Nc3ccc(N4CCNCC4)c(F)c3)nc21`: the IC50 on PAK2 (PAK65) is less than 50 nM; at PAK4 it was 500 to 5000 nM; on PAK3, less than 50 nM; at PAK1, less than 50 nM.
On to `CCn1c(=O)c(-c2ccc(-c3cncnc3)cc2Cl)cc2cnc(Nc3ccc(N4CCNCC4)cc3)nc21`, for which the IC50 against PAK2 (PAK65) is less than 50 nM; against PAK4 it was 500 to 5000 nM; against PAK3 it was less than 50 nM; against PAK1 it was less than 50 nM.
Turning to `CCn1c(=O)c(-c2ccc(-c3noc(C(F)(F)F)n3)cc2Cl)cc2cnc(Nc3ccc(N4CCN(C)CC4)cc3)nc21`, the IC50 on PAK2 (PAK65) is less than 50 nM; at PAK4 it was no less than 5000 nM; on PAK3 it was 50 to 500 nM; at PAK1, less than 50 nM.
With `CCN1CCN(c2ccc(Nc3ncc4cc(-c5ccc(-c6cncnc6)cc5Cl)c(=O)n(CC)c4n3)cc2F)CC1`, the IC50 on PAK2 (PAK65) was less than 50 nM; against PAK4, 500 to 5000 nM; against PAK3 it was less than 50 nM; on PAK1, less than 50 nM.
Turning to `CCn1c(=O)c(-c2ccc(-c3cccnc3)cc2Cl)cc2cnc(Nc3ccc(N4CCNCC4)cc3)nc21`, the IC50 was less than 50 nM at PAK2 (PAK65), 500 to 5000 nM against PAK4, less than 50 nM at PAK3 and less than 50 nM against PAK1.
For `CCn1c(=O)c(-c2ccc(-c3cccnc3)cc2Cl)cc2cnc(Nc3ccc(N4CCN(C)CC4)c(F)c3)nc21`, the IC50 on PAK2 (PAK65) is less than 50 nM; against PAK4 it was 500 to 5000 nM; against PAK3, less than 50 nM; at PAK1, less than 50 nM.
With `CCn1c(=O)c(-c2ccc(-c3cncnc3)cc2Cl)cc2cnc(Nc3ccc(N4CCN(C)CC4)c(F)c3)nc21`, the IC50 against PAK2 (PAK65) is less than 50 nM; at PAK4, no less than 5000 nM; against PAK3, less than 50 nM; at PAK1, less than 50 nM.
Consider `CCn1c(=O)c(-c2ccc(-c3cncnc3)cc2Cl)cc2cnc(Nc3ccc(N4CCN(C(C)C)CC4)c(F)c3)nc21`, for which the IC50 on PAK2 (PAK65) is less than 50 nM; at PAK4 it was no less than 5000 nM; against PAK3, less than 50 nM; against PAK1, less than 50 nM.
For the compound `CCn1c(=O)c(-c2ccc(-c3cncnc3)cc2Cl)cc2cnc(Nc3ccc(N4CCN(C(C)C)CC4)cc3)nc21`, the IC50 was less than 50 nM on PAK2 (PAK65), 500 to 5000 nM on PAK4, less than 50 nM against PAK3 and less than 50 nM against PAK1.
With `CCN1CCN(c2ccc(Nc3ncc4cc(-c5ccc(-c6cccnc6)cc5Cl)c(=O)n(CC)c4n3)cc2)CC1`, the IC50 at PAK2 (PAK65) was less than 50 nM; against PAK4, 500 to 5000 nM; on PAK3, less than 50 nM; at PAK1 it was less than 50 nM.
`CCn1c(=O)c(-c2ccc(-c3cncs3)cc2Cl)cc2cnc(Nc3ccc(N4CCNCC4)cc3)nc21`: the IC50 against PAK2 (PAK65) is less than 50 nM; against PAK4, 500 to 5000 nM; on PAK3, less than 50 nM; at PAK1 it was less than 50 nM.
Consider `CCn1c(=O)c(-c2ccc(-c3noc(C)n3)cc2Cl)cc2cnc(Nc3ccc(N4CCN(C)CC4)cc3)nc21`, for which the IC50 is less than 50 nM against PAK2 (PAK65), 500 to 5000 nM on PAK4, less than 50 nM on PAK3 and less than 50 nM against PAK1.
Turning to `CCn1c(=O)c(-c2ccc(-c3cccnc3)cc2Cl)cc2cnc(Nc3ccc(N4CCN(C(C)C)CC4)c(F)c3)nc21`, the IC50 on PAK2 (PAK65) was less than 50 nM; on PAK4, no less than 5000 nM; against PAK3 it was less than 50 nM; at PAK1, less than 50 nM.
On to `CCN1CCN(c2ccc(Nc3ncc4cc(-c5ccc(-c6cncnc6)cc5Cl)c(=O)n(CC)c4n3)cc2)CC1`, for which the IC50 on PAK2 (PAK65) is less than 50 nM; on PAK4, 500 to 5000 nM; against PAK3, less than 50 nM; on PAK1, less than 50 nM.
In the case of `CCn1c(=O)c(-c2ccc(-c3cncs3)cc2Cl)cc2cnc(Nc3ccc(N4CCNCC4)c(F)c3)nc21`, the IC50 on PAK2 (PAK65) was less than 50 nM; against PAK4 it was 500 to 5000 nM; against PAK3 it was less than 50 nM; against PAK1 it was less than 50 nM.
With `CCn1c(=O)c(-c2ccc(-c3cncs3)cc2Cl)cc2cnc(Nc3ccc(N4CCN(C)CC4)c(F)c3)nc21`, the IC50 on PAK2 (PAK65) is less than 50 nM; against PAK4, no less than 5000 nM; against PAK3, less than 50 nM; against PAK1, less than 50 nM.
In the case of `CCn1c(=O)c(-c2ccc(-c3noc(C)n3)cc2Cl)cc2cnc(Nc3ccc(C4CCNCC4)cc3)nc21`, the IC50 at PAK3 was less than 50 nM.
`CCn1c(=O)c(-c2ccc(-c3cnc(C)s3)cc2Cl)cc2cnc(Nc3ccc(C4CCNCC4)cc3)nc21` returned an IC50 against PAK3 of 50 to 500 nM.
The same measure, in the same setting: for `CCn1c(=O)c(-c2ccc(-c3cccnc3C)cc2Cl)cc2cnc(Nc3ccc(C4CCNCC4)cc3)nc21` the value was 50 to 500 nM.
Regarding `CCn1c(=O)c(-c2ccc(-c3ccnc(C)c3)cc2Cl)cc2cnc(Nc3ccc(C4CCNCC4)c(F)c3)nc21`, the IC50 against PAK2 (PAK65) and against PAK1 was 50 to 500 nM each time.
`CCn1c(=O)c(-c2ccc(-c3cccnc3F)cc2Cl)cc2cnc(Nc3ccc(C4CCNCC4)cc3)nc21` had an IC50 against PAK4 of 500 to 5000 nM.
